Reference: publication PMC5354766, “The expression of Nectin-4 on the surface of ovarian cancer cells alters their ability to adhere, migrate, aggregate, and proliferate” (Oncotarget, 2016)
Where no end group is shown, it is not given here.

Key:
[1] = system: NIH:OVCAR5-N4-over cells adhering to recombinant human Nectin-1 extracellular domain; settings: 1 h
[2] = system: NIH:OVCAR5 cells; experiment: Wound healing (cell migration) assay after mitomycin C treatment; type: cell-based, human; settings: 25 μg/ml mitomycin C for 3 h
Experimental: Cells were diluted to a concentration of 700,000-10^6 cells/ml in complete media, and 70 μl was plated into each chamber (0.22 cm^2 growth area) of an ibidi® wound-healing culture-insert (ibidi® Verona, WI) in triplicate in a 100 × 20 mm dish (Corning, Falcon, Corning NY). Cells were grown overnight at 37°C in a humidified incubator with 5% CO2 or until the chambers were confluent, prior to removal of the culture insert. Migrating cells were incubated in OptiMEM® containing 10 μM lysophosphatidic acid (LPA Cayman Chemical, Ann Arbor, MI) and photographed initially (t = 0 h), and then up to 48 h with a 4X objective. Image analysis was performed using ImageJ software with the Scratch Assay Analyzer from the MiToBo plug in. Three independent experiments were performed on each cell line.
(§1) Mitomycin C (Sigma-Aldrich, M287) was reconstituted at 0.4 mg/ml in PBS, pH 7.4, according to the supplier's instructions. Prior to spheroid assays, adherent NIH:OVCAR5 cells were pretreated for 3 hours at 37°C, in a tissue culture flask 10 μg/ml mitomycin C diluted in complete RPMI media. Flasks were rinsed with PBS and cells were detached as described for the spheroid assay. For migration assays, cells were plated in ibidi® wound-healing culture-insert incubated overnight, then the media was removed from the culture inserts and replaced with 25 μg/ml mitomycin C in complete RPMI. After 3 hours at 37°C, the culture inserts were removed and the cells were washed with PBS and cell migration was measured as described above.

[3] = system: NIH:OVCAR5 cells; experiment: Spheroid formation after mitomycin C treatment; type: cell-based, human; settings: 10 μg/ml mitomycin C for 3 h, spheroids after 24 h
Experimental: Spheroids were formed from the cell lines described above using the liquid overlay method. One milliliter of a single cell suspension was seeded at a concentration of 50,000 cells/ml in complete media, into 24-well tissue culture plates coated with 0.5% Seakem agarose (in complete media). Plates were incubated at 37°C in a humidified incubator with 5% CO2. At various time points up to 5 days, the plates were removed from the incubator and the spheroids were photographed with a Nikon CoolPix digital camera mounted on an Olympus CK2 inverted microscope with a 4X objective. The size of the spheroids was determined using the measure tool in Adobe Photoshop. The largest spheroids were quantified (20-90 spheroids/well) in a minimum of 8 wells, for a total of >300 spheroids per cell type.
as §1

[4] = system: NIH:OVCAR5-N4-over cells adhering to recombinant human Nectin-1 extracellular domain; experiment: Peptide screen in the cell adhesion assay at 150 μg/ml; type: cell-based; settings: peptide 0.15 mg/ml; 0.5 μg/well Nectin-1 (R&D Systems); relative to DMSO control; Figure 4A
Experimental: Black, clear-bottom 96-well microtiter plates (Corning, Imported Costar, Corning, NY) were coated with various concentrations of recombinant human Nectin-1 extracellular domain (R&D Systems or Acrobiosystems, Newark, DE), recombinant human Nectin-4 extracellular domain (R&D Systems), or bovine serum albumin (BSA; Probumin Diagnostic Grade, MilliPore) diluted in PBS. Covered plates were incubated overnight at 37°C in a humidified incubator. After washing with PBS plus Ca^2+/Mg^2+ containing 2 mg/ml ovalbumin (Sigma-Aldrich), the plates were blocked for 1 h at 37°C with 1% BSA in PBS without Ca^2+/Mg^2+. Confluent monolayers of NIH:OVCAR5 cells or NIH:OVCAR5-N4-over cells were detached with Accutase, and then filtered through a 40 μm cell strainer (BD Biosciences, San Jose, CA) to remove cell aggregates. The single cells were stained with CellTracker Green CMFDA (5-chloromethylfluorescein diacetate; Invitrogen™) according to the manufacturer's protocol. After washing the plate, 30,000 cells were added to each well in 50 μl of RPMI 1640 media containing 2 mg/ml ovalbumin and allowed to adhere for 15-60 min at 37°C. Plates were vigorously washed four times and read in a BioTek Synergy fluorescent microplate reader (BioTek, Winooski, VA). Experiments were conducted in triplicate.
Microtiter plates coated with 0.5 μg/well recombinant human Nectin-1 extracellular domain (R&D Systems) as described above were pre-incubated for 30 min at room temperature with 150 μg/ml Nectin-4 peptides in PBS in triplicate. CMFDA-stained NIH:OVCAR5-N4-over cells were then added to the wells and cell adhesion was quantified after a 30 min incubation as described above. In parallel studies, CMFDA-stained NIH:OVCAR5-N4-over cells were pre-incubated for 30 min at room temperature with 150 μg/ml Nectin-1 peptides in PBS in triplicate, and then the cells and peptides were added to the 96-well plate followed by a 30 min incubation. […] Dose curves were conducted as described above, except the microtiter plates were coated with 0.25 μg/well recombinant human Nectin-1 extracellular domain (Acrobiosystems), and the peptides and scrambled controls were diluted from 0.01-200 μg/ml.

Row | Molecule | IC50 (mg/ml), inhibition of binding of OVCAR5-N4-over cells to recombinant Nectin-1 [1] | Promotion of cell adhesion [4] | other results
1 | NWYLQRMDVKLTCK-NH2 [N1-P20] | 0.018 mg/mL |  | 
2 | CO[C@@]12[C@H](COC(N)=O)C3=C(C(=O)C(C)=C(N)C3=O)N1C[C@@H]1N[C@@H]12 [mitomycin C] |  |  | Effect on migration in wound healing assay ([2]; NIH:OVCAR5 cells that over-express Nectin-4, 24 h): almost completely inhibited migration; Exposed wound area covered by migrating cells in 24 h ([2]; NIH:OVCAR5 control cells, untreated cells completely closed the wound): 50%; Migration (wound area covered) in 24 h ([2]; Nectin-4 knock-down cells N4-KD-VB3, untreated cells 25%): 16%; Spheroid size with vs without treatment ([3]; NIH:OVCAR5-N4-KD cells): essentially unchanged; Spheroid size with vs without treatment ([3]; NIH:OVCAR5-N4-over cells): essentially unchanged; Spheroid size with vs without treatment ([3]; NIH:OVCAR5 control cells): somewhat smaller
3 | RVDGDTLGFPPLTT [N4-P23, Synthetic peptide from Nectin-4 extracellular domain, IgC2] |  | ~1.5 fold | 
4 | QRITHILHVSFLAE-NH2 [N4-P18] | 0.041 mg/mL |  | 
5 | CLSEGQPPPSYNWT [N4-P21, Synthetic peptide from Nectin-4 extracellular domain, IgC2] |  | ~1.5 fold | 
6 | TTEHSGIYVCHVSN [N4-P24, Synthetic peptide from Nectin-4 extracellular domain, IgC2] |  | ~1.5 fold | 
7 | LWHIGREGAMLKCL [N4-P20, Synthetic peptide from Nectin-4 extracellular domain, IgC2] |  | ~1.5 fold | 
8 | WTRLDGPLPSGVRV-NH2 [N4-P22] | 0.028 mg/mL |  | 
9 | ACIVNYHMDRFKES-NH2 [N1-P17] | 0.006 mg/mL |  | 
